Results as given in PMC5218480 (PLoS ONE, 2017).

Test system: MV-4-11 cells
Assay: Gene expression microarray analysis (Affymetrix PrimeView) and GSEA
Type: cell-based, human
Parameters: RFU PODN (11730768_x_at) / Fold change /veh PODN (11730768_x_at) / RFU LINC00158 (11744669_a_at) / Fold change /veh LINC00158 (11744669_a_at) / RFU DUSP10 (11751237_a_at) / Fold change /veh DUSP10 (11751237_a_at) / RFU ID3 (11757404_x_at) / Fold change /veh ID3 (11757404_x_at) / RFU PLEKHG5 (11737974_s_at) / Fold change /veh PLEKHG5 (11737974_s_at) / RFU LRRC4B (11730491_at) / Fold change /veh LRRC4B (11730491_at) / RFU GIMAP4 (11747438_a_at) / Fold change /veh GIMAP4 (11747438_a_at) / RFU KRT8 (11758183_x_at) / Fold change /veh KRT8 (11758183_x_at) / RFU CNN1 (11734310_a_at) / Fold change /veh CNN1 (11734310_a_at) / RFU VPS37D (11726825_at) / Fold change /veh VPS37D (11726825_at) / RFU C10orf10 (11716522_x_at) / Fold change /veh C10orf10 (11716522_x_at) / RFU KIR2DL2 /// KIR2DL4 /// KIR2DL5A /// KIR2DL5B /// KIR2DS1 /// KIR2DS2 /// KIR2DS3 /// KIR2DS4 /// KIR3DL3 /// KIR3DL3 /// KIR3DS1 (11738374_at) / Fold change /veh KIR2DL2 /// KIR2DL4 /// KIR2DL5A /// KIR2DL5B /// KIR2DS1 /// KIR2DS2 /// KIR2DS3 /// KIR2DS4 /// KIR3DL3 /// KIR3DL3 /// KIR3DS1 (11738374_at) / RFU C1QL1 (11718748_at) / Fold change /veh C1QL1 (11718748_at) / RFU TMPRSS4 (11747572_a_at) / Fold change /veh TMPRSS4 (11747572_a_at) / RFU HAMP (11756126_x_at) / Fold change /veh HAMP (11756126_x_at) / RFU RNFT2 (11725882_a_at) / Fold change /veh RNFT2 (11725882_a_at) / RFU NR4A2 (11747474_a_at) / Fold change /veh NR4A2 (11747474_a_at) / RFU ABCC12 (11746883_a_at) / Fold change /veh ABCC12 (11746883_a_at) / RFU TMEM136 (11760407_x_at) / Fold change /veh TMEM136 (11760407_x_at) / RFU CLDN22 /// WWC2 (11732394_at) / Fold change /veh CLDN22 /// WWC2 (11732394_at) / RFU HLA-DPB1 (11760878_x_at) / Fold change /veh HLA-DPB1 (11760878_x_at) / RFU SPINT1 (11716480_a_at) / Fold change /veh SPINT1 (11716480_a_at) / RFU GAP43 (11754022_s_at) / Fold change /veh GAP43 (11754022_s_at) / RFU A4GNT (11735810_at) / Fold change /veh A4GNT (11735810_at) / RFU PRB3 (11715151_x_at) / Fold change /veh PRB3 (11715151_x_at) / RFU TUBB4B (11761932_at) / Fold change /veh TUBB4B (11761932_at) / RFU CAPN14 (11732068_a_at) / Fold change /veh CAPN14 (11732068_a_at) / RFU TMCC2 (11721928_a_at) / Fold change /veh TMCC2 (11721928_a_at) / RFU IRGQ (11745062_a_at) / Fold change /veh IRGQ (11745062_a_at) / RFU FAM174B (11720279_a_at) / Fold change /veh FAM174B (11720279_a_at) / RFU TMPRSS4 (11748680_a_at) / Fold change /veh TMPRSS4 (11748680_a_at) / RFU FAM212B (11763350_a_at) / Fold change /veh FAM212B (11763350_a_at) / RFU PLEKHG5 (11743358_a_at) / Fold change /veh PLEKHG5 (11743358_a_at) / RFU ZSCAN30 (11745921_a_at) / Fold change /veh ZSCAN30 (11745921_a_at) / RFU CMKLR1 (11741424_a_at) / Fold change /veh CMKLR1 (11741424_a_at) / RFU LOC101060620 /// MAPK8IP1 (11723275_at) / Fold change /veh LOC101060620 /// MAPK8IP1 (11723275_at) / RFU SPTSSB (11747773_x_at) / Fold change /veh SPTSSB (11747773_x_at) / RFU PRSS12 (11739890_at) / Fold change /veh PRSS12 (11739890_at) / RFU BIN1 (11741810_x_at) / Fold change /veh BIN1 (11741810_x_at) / RFU WNT11 (11732464_a_at) / Fold change /veh WNT11 (11732464_a_at) / RFU C10orf10 (11716521_a_at) / Fold change /veh C10orf10 (11716521_a_at) / RFU C5orf56 (11738089_at) / Fold change /veh C5orf56 (11738089_at) / RFU CYB561 (11721691_x_at) / Fold change /veh CYB561 (11721691_x_at) / RFU ANKRD19P (11752326_a_at) / Fold change /veh ANKRD19P (11752326_a_at) / RFU OR2T12 /// OR2T33 /// OR2T8 (11738714_s_at) / Fold change /veh OR2T12 /// OR2T33 /// OR2T8 (11738714_s_at) / RFU VCAN (11748164_a_at) / Fold change /veh VCAN (11748164_a_at) / RFU JSRP1 (11732532_at) / Fold change /veh JSRP1 (11732532_at) / RFU KRTAP10-11 (11738290_x_at) / Fold change /veh KRTAP10-11 (11738290_x_at) / RFU MYO3A (11730013_a_at) / Fold change /veh MYO3A (11730013_a_at) / RFU EBF3 (11725865_a_at) / Fold change /veh EBF3 (11725865_a_at) / RFU CAMK2N1 (11719241_x_at) / Fold change /veh CAMK2N1 (11719241_x_at) / RFU C5orf56 (11738088_a_at) / Fold change /veh C5orf56 (11738088_a_at) / RFU OLFML3 (11715873_a_at) / Fold change /veh OLFML3 (11715873_a_at) / RFU LOC100653217 /// NTM (11731650_a_at) / Fold change /veh LOC100653217 /// NTM (11731650_a_at) / RFU MAPK11 (11762145_a_at) / Fold change /veh MAPK11 (11762145_a_at) / RFU FIZ1 (11724087_x_at) / Fold change /veh FIZ1 (11724087_x_at) / RFU OASL (11726364_x_at) / Fold change /veh OASL (11726364_x_at) / RFU SOX15 (11748057_x_at) / Fold change /veh SOX15 (11748057_x_at) / RFU CD79A (11719716_a_at) / Fold change /veh CD79A (11719716_a_at) / RFU HIST1H1D (11736915_at) / Fold change /veh HIST1H1D (11736915_at) / RFU CASKIN2 (11723855_a_at) / Fold change /veh CASKIN2 (11723855_a_at) / RFU LOC730098 (11760151_x_at) / Fold change /veh LOC730098 (11760151_x_at) / RFU OR4N2 (11742367_at) / Fold change /veh OR4N2 (11742367_at) / RFU PRRT2 (11749266_a_at) / Fold change /veh PRRT2 (11749266_a_at) / RFU SNX32 (11753110_a_at) / Fold change /veh SNX32 (11753110_a_at) / RFU CDHR5 (11726645_a_at) / Fold change /veh CDHR5 (11726645_a_at) / RFU RCAN1 (11760418_a_at) / Fold change /veh RCAN1 (11760418_a_at) / RFU FAM167A (11723789_a_at) / Fold change /veh FAM167A (11723789_a_at) / RFU FAM26E (11764081_at) / Fold change /veh FAM26E (11764081_at) / RFU ISYNA1 (11749810_s_at) / Fold change /veh ISYNA1 (11749810_s_at) / RFU ACY1 (11761880_at) / Fold change /veh ACY1 (11761880_at) / RFU 11764098_at / Fold change /veh 11764098_at / RFU SAMD14 (11745864_x_at) / Fold change /veh SAMD14 (11745864_x_at) / RFU NPB (11741838_a_at) / Fold change /veh NPB (11741838_a_at) / RFU TMPRSS6 (11731388_a_at) / Fold change /veh TMPRSS6 (11731388_a_at) / RFU KRTAP10-2 (11738614_at) / Fold change /veh KRTAP10-2 (11738614_at) / RFU ARHGAP8 /// PRR5-ARHGAP8 (11727945_x_at) / Fold change /veh ARHGAP8 /// PRR5-ARHGAP8 (11727945_x_at) / RFU KRTAP5-7 /// NADSYN1 (11734609_at) / Fold change /veh KRTAP5-7 /// NADSYN1 (11734609_at) / RFU RASL12 (11751679_a_at) / Fold change /veh RASL12 (11751679_a_at) / RFU CDKN2B (11736163_a_at) / Fold change /veh CDKN2B (11736163_a_at) / RFU PRF1 (11729649_at) / Fold change /veh PRF1 (11729649_at) / RFU, ZNF638 /// ZNF638-IT1 / Fold change vs veh, ZNF638 /// ZNF638-IT1 / RFU, PANK3 / Fold change vs veh, PANK3 / RFU, SH3YL1 / Fold change vs veh, SH3YL1 / RFU, ZEB2 / Fold change vs veh, ZEB2 / RFU, NRIP1 / Fold change vs veh, NRIP1 / RFU, PTTG1IP / Fold change vs veh, PTTG1IP / RFU, CAPN2 / Fold change vs veh, CAPN2 / RFU, MED14 / Fold change vs veh, MED14 / RFU, SNORA58 / Fold change vs veh, SNORA58 / RFU, C1orf63 / Fold change vs veh, C1orf63 / RFU, LRRFIP1 / Fold change vs veh, LRRFIP1 / RFU, NDUFAF7 / Fold change vs veh, NDUFAF7 / RFU, SLC12A2 / Fold change vs veh, SLC12A2 / RFU, IBTK / Fold change vs veh, IBTK / RFU, ESF1 / Fold change vs veh, ESF1 / Fold change vs veh, TMEM50B / RFU, TAOK1 / Fold change vs veh, TAOK1 / RFU, ACBD3 / Fold change vs veh, ACBD3 / RFU, TMA16 / Fold change vs veh, TMA16 / RFU, RWDD3 / Fold change vs veh, RWDD3 / RFU, BCAT1 / Fold change vs veh, BCAT1 / RFU, EDEM3 / Fold change vs veh, EDEM3 / RFU, TMEM33 / Fold change vs veh, TMEM33 / RFU, WDR75 / Fold change vs veh, WDR75 / RFU, AHCTF1 / Fold change vs veh, AHCTF1 / RFU, TFRC / Fold change vs veh, TFRC / RFU, ZDHHC17 / Fold change vs veh, ZDHHC17 / RFU, NOM1 / Fold change vs veh, NOM1 / RFU, ARL8B / Fold change vs veh, ARL8B / RFU, ZBTB11 / Fold change vs veh, ZBTB11 / RFU, TAMM41 / Fold change vs veh, TAMM41 / RFU, KIAA1704 /// LOC100996395 / Fold change vs veh, KIAA1704 /// LOC100996395 / RFU, ING1 / Fold change vs veh, ING1 / RFU, TRMT61B / Fold change vs veh, TRMT61B / RFU, FUBP3 / Fold change vs veh, FUBP3 / RFU, TP53 / Fold change vs veh, TP53 / RFU, TNKS2 / Fold change vs veh, TNKS2 / RFU, ZFP14 / Fold change vs veh, ZFP14 / RFU, ACTR2 / Fold change vs veh, ACTR2 / RFU, PPP3R1 / Fold change vs veh, PPP3R1 / RFU, PIK3R1 / Fold change vs veh, PIK3R1 / RFU, HNRNPA1 / Fold change vs veh, HNRNPA1 / RFU, RNF170 / Fold change vs veh, RNF170 / RFU, ZNF28 / Fold change vs veh, ZNF28 / RFU, RNGTT / Fold change vs veh, RNGTT / RFU, OGT / Fold change vs veh, OGT / RFU, BRD1 / Fold change vs veh, BRD1 / RFU, MARS / Fold change vs veh, MARS / RFU, ZNF655 / Fold change vs veh, ZNF655 / RFU, FAHD1 / Fold change vs veh, FAHD1 / RFU, BDP1 / Fold change vs veh, BDP1 / RFU, LRRCC1 / Fold change vs veh, LRRCC1 / RFU, ARID1A / Fold change vs veh, ARID1A / RFU, ZNF146 / Fold change vs veh, ZNF146 / RFU, ZNF330 / Fold change vs veh, ZNF330 / RFU, GPN3 / Fold change vs veh, GPN3 / RFU, C9orf123 / Fold change vs veh, C9orf123 / RFU, N4BP2L2 / Fold change vs veh, N4BP2L2 / RFU, ARFIP1 / Fold change vs veh, ARFIP1 / RFU, FAM179B / Fold change vs veh, FAM179B / RFU, BCL10 / Fold change vs veh, BCL10 / RFU, UHRF1BP1L / Fold change vs veh, UHRF1BP1L / RFU, BET1 / Fold change vs veh, BET1 / RFU, CNOT2 / Fold change vs veh, CNOT2 / RFU, ZNF268 / Fold change vs veh, ZNF268 / Fold change vs veh, ZNF507 / RFU, DGCR2 / Fold change vs veh, DGCR2 / RFU, WDSUB1 / Fold change vs veh, WDSUB1 / Fold change vs veh, HSP90B1 /// MIR3652 / RFU, ADSS / Fold change vs veh, ADSS / RFU, GK / Fold change vs veh, GK / RFU, ZNF148 / Fold change vs veh, ZNF148 / RFU, TAF9 / Fold change vs veh, TAF9 / RFU, SLC1A5 / Fold change vs veh, SLC1A5 / RFU, SLMO2 / Fold change vs veh, SLMO2 / RFU, ABCC4 / Fold change vs veh, ABCC4 / RFU, LOC101060439 /// RAP1B / Fold change vs veh, LOC101060439 /// RAP1B / RFU, RFX7 / Fold change vs veh, RFX7 / RFU, GTPBP10 / Fold change vs veh, GTPBP10 / RFU, CNEP1R1 / Fold change vs veh, CNEP1R1 / RFU, BIVM-ERCC5 /// ERCC5 / Fold change vs veh, BIVM-ERCC5 /// ERCC5 / RFU, ILF3 / Fold change vs veh, ILF3 / RFU 11762660_at / Fold change /veh 11762660_at / RFU VCAN (11757783_s_at) / Fold change /veh VCAN (11757783_s_at) / RFU DDX43 (11728927_at) / Fold change /veh DDX43 (11728927_at) / RFU KRT8 (11758188_x_at) / Fold change /veh KRT8 (11758188_x_at) / RFU NKD1 (11759106_at) / Fold change /veh NKD1 (11759106_at) / RFU SRD5A1 (11742802_a_at) / Fold change /veh SRD5A1 (11742802_a_at) / RFU TPSAB1 /// TPSB2 (11721975_s_at) / Fold change /veh TPSAB1 /// TPSB2 (11721975_s_at) / RFU GSTM3 (11746129_a_at) / Fold change /veh GSTM3 (11746129_a_at) / RFU IL23R (11737362_x_at) / Fold change /veh IL23R (11737362_x_at) / RFU TMEM51 (11727254_a_at) / Fold change /veh TMEM51 (11727254_a_at) / RFU PIWIL2 (11732686_x_at) / Fold change /veh PIWIL2 (11732686_x_at) / RFU ORM1 (11744905_x_at) / Fold change /veh ORM1 (11744905_x_at) / RFU CCDC152 (11743942_at) / Fold change /veh CCDC152 (11743942_at) / RFU ECM1 (11717891_a_at) / Fold change /veh ECM1 (11717891_a_at) / RFU IL23R (11748794_a_at) / Fold change /veh IL23R (11748794_a_at) / RFU TNFAIP8L3 (11732012_x_at) / Fold change /veh TNFAIP8L3 (11732012_x_at) / RFU MBOAT4 (11741988_at) / Fold change /veh MBOAT4 (11741988_at) / RFU 11764193_at / Fold change /veh 11764193_at / RFU TMEM53 (11763286_at) / Fold change /veh TMEM53 (11763286_at) / RFU MAGEB2 (11727129_at) / Fold change /veh MAGEB2 (11727129_at) / RFU TMEM200A (11744735_a_at) / Fold change /veh TMEM200A (11744735_a_at) / RFU CCDC152 (11751479_a_at) / Fold change /veh CCDC152 (11751479_a_at) / RFU FAM211A (11726209_a_at) / Fold change /veh FAM211A (11726209_a_at) / RFU RGS16 (11746705_a_at) / Fold change /veh RGS16 (11746705_a_at) / RFU VCAN (11755009_s_at) / Fold change /veh VCAN (11755009_s_at) / RFU RHOB (11743442_s_at) / Fold change /veh RHOB (11743442_s_at) / RFU RGS16 (11720943_a_at) / Fold change /veh RGS16 (11720943_a_at) / RFU RGS16 (11720944_at) / Fold change /veh RGS16 (11720944_at) / RFU, VPS4B / Fold change vs veh, VPS4B / RFU, CREB1 / Fold change vs veh, CREB1 / RFU, DNAJC13 / Fold change vs veh, DNAJC13 / RFU, GNAQ / Fold change vs veh, GNAQ / RFU, CDK5R1 / Fold change vs veh, CDK5R1 / RFU, ZRANB3 / Fold change vs veh, ZRANB3 / RFU, CUL4A / Fold change vs veh, CUL4A / RFU, CCNY / Fold change vs veh, CCNY / RFU, UFL1 / Fold change vs veh, UFL1 / RFU, COG3 / Fold change vs veh, COG3 / RFU, DIAPH2 / Fold change vs veh, DIAPH2 / RFU, SKA2 / Fold change vs veh, SKA2 / RFU, AFF3 / Fold change vs veh, AFF3 / RFU, LMF1 / Fold change vs veh, LMF1 / RFU, IPO11 / Fold change vs veh, IPO11 / RFU, DFFB / Fold change vs veh, DFFB / RFU, FOXP1 / Fold change vs veh, FOXP1 / RFU, CARD8 / Fold change vs veh, CARD8 / RFU, STRN3 / Fold change vs veh, STRN3 / RFU, ADK / Fold change vs veh, ADK / RFU, RASSF2 / Fold change vs veh, RASSF2 / RFU, WIPF1 / Fold change vs veh, WIPF1 / RFU, LARP1B / Fold change vs veh, LARP1B / RFU, RASA1 / Fold change vs veh, RASA1 / RFU, RB1 / Fold change vs veh, RB1 / RFU, PPFIA1 / Fold change vs veh, PPFIA1 / RFU, MAT2A / Fold change vs veh, MAT2A / RFU, CCT5 / Fold change vs veh, CCT5 / RFU, WDR92 / Fold change vs veh, WDR92 / RFU, CUX1 / Fold change vs veh, CUX1 / RFU, TTC7A / Fold change vs veh, TTC7A / RFU, TMEM135 / Fold change vs veh, TMEM135 / RFU, DEPTOR / Fold change vs veh, DEPTOR / RFU, CPM / Fold change vs veh, CPM / RFU, DNAJB6 / Fold change vs veh, DNAJB6 / RFU, CACNA2D3 / Fold change vs veh, CACNA2D3 / RFU, DTX4 / Fold change vs veh, DTX4 / RFU, TFCP2 / Fold change vs veh, TFCP2 / RFU, GMCL1 /// GMCL1P1 / Fold change vs veh, GMCL1 /// GMCL1P1 / RFU, AEBP2 / Fold change vs veh, AEBP2 / RFU, SNHG1 /// SNORD22 /// SNORD25 /// SNORD26 /// SNORD27 /// SNORD28 /// SNORD29 /// SNORD31 / Fold change vs veh, SNHG1 /// SNORD22 /// SNORD25 /// SNORD26 /// SNORD27 /// SNORD28 /// SNORD29 /// SNORD31 / Fold change (Aza/veh), C12orf56 (ProbeSet 11735607_a_at) / Fold change (ACY-1035/veh), C12orf56 (ProbeSet 11735607_a_at) / Fold change (Aza/veh), FGFR1OP (ProbeSet 11751329_s_at) / Fold change (ACY-1035/veh), FGFR1OP (ProbeSet 11751329_s_at) / Fold change (Aza/veh), VPS36 (ProbeSet 11739960_a_at) / Fold change (ACY-1035/veh), VPS36 (ProbeSet 11739960_a_at) / RFU SYPL1 (11715823_x_at) / Fold change /veh SYPL1 (11715823_x_at) / RFU IGFBP7 (11715501_s_at) / Fold change /veh IGFBP7 (11715501_s_at) / RFU REEP3 (11722064_at) / Fold change /veh REEP3 (11722064_at) / RFU IGLL1 (11728026_x_at) / Fold change /veh IGLL1 (11728026_x_at): dose or concentration left out as unconfirmed
Conditions: MV-4-11 cells, 48 hours

SMILES: Nc1ncn([C@@H]2O[C@H](CO)[C@@H](O)[C@H]2O)c(=O)n1 [azacitidine]
- Fold change /veh OR2T12 /// OR2T33 /// OR2T8 (11738714_s_at): 1.07
